# Patent US7125542B2, “Methods and compositions for treating conditions of the eye” (Massachusetts Eye and Ear Infirmary, priority 2000, dated 2006)
# Like-named read-outs stand apart in the source and are kept apart here.
# Experiments:
# Bak = experiment: Western blot of Bcl-2 family members in RPE cells after Lu-Tex/PDT; format: cell-based, Human; details: up to 4 hours post-PDT, then decline
# Procedure: (§1) In order to evaluate the expression of Bcl-2 family members in BRCE and RPE cells after Lu-Tex/PDT, BRCE and RPE cells were subjected to Lu-Tex/PDT and the resultant cellular lysates subjected to Western blot analysis for detection of the anti-apoptotic Bcl-2, Bcl-xL markers, and the pro-apoptotic Bax and Bak markers.
# (§2) Cell lysates were produced as described in Example 3. Sodium dodecyl sulfate-polyacrylamide gel electrophoresis of proteins was performed with 12% SDS-polyacrylamide gels. All samples were boiled in denaturing sample buffer, and equal amounts of proteins were loaded per lane. Proteins were separated at room temperature under reducing conditions at 120 V. Western blot transfer of separated proteins was performed at room temperature, using polyvinylidene fluoride membranes at 50 mA for 1 hr. To verify equal protein loading, blots were stained with 0.1% ponceau red (Sigma) diluted in 5% acetic acid. Afterwards, blots were blocked for 1 hr in Tris buffered saline (TBS; 10 mM Tris-HCl, pH 7.5, and 150 mM NaCl) containing 5% non-fat dried milk. Next, the membranes were probed with an appropriate dilution (1:250 to 1:1000) of primary antibody in TBS containing 2.5% non-fat dried milk for one and a half hours. Mouse polyclonal antibodies against Bcl-2, Bcl-xL, Bax and Bak were purchased from Pharmingen. […]
# Bcl-xL = experiment: as above; format: cell-based, Human; details: up to 4 hours post-PDT, then plateau
# Procedure: as §1, §2
# Bax = experiment: Western blot of Bcl-2 family members in BRCE cells after Lu-Tex/PDT; format: cell-based, Bovine; details: after Lu-Tex/PDT at LD50
# Procedure: as §1
# (§3) Cell lysates were produced as described in Example 3. Sodium dodecyl sulfate-polyacrylamide gel electrophoresis of proteins was performed with 12% SDS-polyacrylamide gels. All samples were boiled in denaturing sample buffer, and equal amounts of proteins were loaded per lane. Proteins were separated at room temperature under reducing conditions at 120 V. Western blot transfer of separated proteins was performed at room temperature, using polyvinylidene fluoride membranes at 50 mA for 1 hr. To verify equal protein loading, blots were stained with 0.1% ponceau red (Sigma) diluted in 5% acetic acid. Afterwards, blots were blocked for 1 hr in Tris buffered saline (TBS; 10 mM Tris-HCl, pH 7.5, and 150 mM NaCl) containing 5% non-fat dried milk. Next, the membranes were probed with an appropriate dilution (1:250 to 1:1000) of primary antibody in TBS containing 2.5% non-fat dried milk for one and a half hours. Mouse polyclonal antibodies against Bcl-2, Bcl-xL, Bax and Bak were purchased from Pharmingen. After incubation with primary antibody, the blots were washed for 30 minutes with frequent changes of TBS, blocked in 1% non-fat dried milk in TBS for 30 minutes, followed by incubation in a peroxidase-coupled secondary antibody for 1 hour in TBS containing 1% non-fat dried milk. The blots were washed for 1 hour with frequent changes of TBST (TBS, 0.1% Tween). Immunoblot analysis was performed using enhanced chemiluminescence plus Western blotting detection reagents (Amersham, Pharmacia Biotec Piscataway, N.J.) followed by exposure to x-ray film (ML Eastman Kodak, Rochester, N.Y.).
# Bcl-2 = experiment: as above; format: cell-based, Bovine; details: after Lu-Tex/PDT at LD50
# Procedure: as §1, §3
# [1] = tested on: Human retinal pigment epithelial (RPE) cells; details: cited from earlier work
# [2] = tested on: Caspase 3-like (DEVD-ase) protease; experiment: Caspase 3-like (DEVD-ase) activation, Ac-DEVD-AFC cleavage in RPE lysates; format: cell-based, Human; details: RPE, 10, 20 and 40 J/cm^2
# Procedure: In order to investigate the role of apoptosis in Lu-Tex/PDT mediated cell death in BRCE and RPE, the activation of Caspase 3-like (DEVD-ase) protease, a hallmark of apoptosis (Nicholson (1997) TIBS 22: 299–306), was monitored. The kinetics of activation were measured spectrofluorometrically by assaying the hydrolysis of a substrate that can be cleaved only by the caspase 3-like protease family members. […]
# In order to measure protease activity, aliquots containing 50 1 μg of cellular protein were incubated with 14 μM (final concentration N-acetyl (Asp-Glu-Val-Asp (SEQ. ID NO: 3)-(7-amino-4-trifluoromethly coumarin) (Ac-DEVD-AFC); (Pharmingen San Diego, Calif.) in 1 ml protease assay buffer pH 7.2 (20 mM piperazine-N-N^1-bis (2-ethanesulfuric acid) (PIPES), 100 mM NaCl, 10 mM dithiothreitol (DTT), 1 mM EDTA, 0.1%(w/v) 3-[(3-Cholamidopropyl) dimethyl ammonio]-1-propane sulfonate (CHAPS), and 10% sucrose) at 37° C. for 1 hour. Fluorescence was measured using a Perkin-Elmer MPF-44A spectrofluorometer (λexcitation, 400 nm; λemission 505 nm). […]
# [3] = typical; cited from earlier work
# [4] = stock solution of 2 mg/ml, in the dark at 4° C.; cited from earlier work
# [5] = tested on: Human retinal pigment epithelial (RPE) cells; experiment: Cell survival, 1-week cell proliferation assay in RPE cells; format: cell-based; details: for Cellular Survival (%): RPE
# Procedure: (§4) Bovine retinal capillary endothelial (BRCE) cells (from Patricia A. D'Amore, Schepens Eye Research Institute, Boston, Mass.) and Human retinal pigment epithelial (RPE) cells (from Anthony P. Adamis, Massachusetts Eye & Ear Infirmary, Boston, Mass.) were grown at 37° C., 5% CO2 in Dulbecco's modified Eagle's medium (DMEM; Sigma, St. Louis, Mo.), 5% heat-inactivated fetal bovine serum (FBS, Gibco, Grand Island, N.Y.), supplemented with L-glutamine, penicillin, and streptomycin (Gibco Grand Island, N.Y.). Lutetium Texaphyrin (Lu-Tex) was obtained from Alcon Laboratories, Inc. (Fort Worth, Tex.) as a stock solution of 2 mg/ml, stable in the dark at 4° C., and used in accordance with the manufacturer's guidelines.
# (§5) Cell survival was measured using a cell proliferation assay. Briefly, BRCE or RPE cells were plated at a density of 10^5 cells in DMEM with 5% FBS and incubated at 37° C. in 5% CO2. After eighteen hours, and if desired, recombinant human angiostatin (Calbiochem, La Jolla, Calif.) was added at a concentration of 500 ng/ml. Eighteen hours later, the medium was removed and replaced by 3 μg/ml Lu-Tex in complete media. Thirty minutes later, the cultures were exposed to timed irradiation using an argon/dye Photocoagulator at 732 nm and laser delivery system (model 920, Coherent Inc., Palo Alto, Calif.). Irradiance was delivered at a rate of […] to give a total dose of 5 to 20 J/cm^2, and irradiation time ranged from 7 to 28 minutes. After irradiation, the medium was removed and replaced with complete medium. Cultures were returned to the incubator for 7 days, after which cells were dispersed in trypsin, counted in a masked fashion, and the surviving fraction determined. Cultures were photographed at various times following Lu-Tex/PDT using a 16×-0.32 numeric aperture on a phase contrast inverted microscope (Diaphot, Nikon, Melville, N.Y.).
# RPE cells = experiment: Cellular morphology following PDT, RPE cells; format: cell-based, Human; details: after treatment
# Procedure: (§6) Experiments were performed to establish how PDT effects the cellular morphology of BRCE and RPE cells. The cells were treated and exposed to PDT either alone or in combination with angiostatin as described in Example 1. Although cells appeared severely damaged immediately after PDT, subsequent recovery occurred in certain circumstances. One week after PDT, some cells disappeared while those that remained regained their spindle shape and their ability to attach.
# [6] = tested on: Bovine retinal capillary endothelial (BRCE) cells; experiment: Cell survival, 1-week cell proliferation assay in BRCE cells; format: cell-based; details: for Cellular Survival (%): BRCE
# Procedure: as §4, §5
# In order to assess the effect of combining angiostatin to Lu-Tex/PDT on BRCE cell survival, cells were pre-treated for 18 hours with 500 ng/ml angiostatin after which they were treated with Lu-Tex/PDT at various fluences. Cellular survival was measured by the 1-week cellular proliferation assay.
# [7] = tested on: Caspase 3-like (DEVD-ase) protease; experiment: Caspase 3-like (DEVD-ase) activation, Ac-DEVD-AFC cleavage in BRCE lysates; format: cell-based, Bovine
# Procedure: In order to investigate the role of apoptosis in Lu-Tex/PDT mediated cell death in BRCE and RPE, the activation of Caspase 3-like (DEVD-ase) protease, a hallmark of apoptosis (Nicholson (1997) TIBS 22: 299–306), was monitored. The kinetics of activation were measured spectrofluorometrically by assaying the hydrolysis of a substrate that can be cleaved only by the caspase 3-like protease family members.
# Various times after Lu-Tex/PDT, 10^6 cells were collected by centrifugation, and the washed cell pellet resuspended in 500 μl of ice-cold lysis buffer (pH 7.5) containing 10 mM Tris, 130 mM NaCl, 1% Triton X-100, 10 mM NaF, 10 mM NaPi, 10 mM NaPPi, 16 μg/ml benzamidine, 10 μg/ml phenanthroline, 10 μg/ml aprotinin, 10 μg/ml leupeptin, 10 μg/ml pepstatin and 4 mM 4(2-aminoethyl)-benzene-sulfanyl fluoride hydrochloride (AEBSF). Cellular lysates were stored in aliquots at −84° C. for later protease activity assay or Western blot analysis. A protein assay (Coomassie Plus protein assay (Pierce, Rockford, Ill.) with a bovine serum albumin (BSA) standard was used to assay protein concentration in cell extract.
# In order to measure protease activity, aliquots containing 50 1 μg of cellular protein were incubated with 14 μM (final concentration N-acetyl (Asp-Glu-Val-Asp (SEQ. ID NO: 3)-(7-amino-4-trifluoromethly coumarin) (Ac-DEVD-AFC); (Pharmingen San Diego, Calif.) in 1 ml protease assay buffer pH 7.2 (20 mM piperazine-N-N^1-bis (2-ethanesulfuric acid) (PIPES), 100 mM NaCl, 10 mM dithiothreitol (DTT), 1 mM EDTA, 0.1%(w/v) 3-[(3-Cholamidopropyl) dimethyl ammonio]-1-propane sulfonate (CHAPS), and 10% sucrose) at 37° C. for 1 hour. Fluorescence was measured using a Perkin-Elmer MPF-44A spectrofluorometer (λexcitation, 400 nm; λemission 505 nm). Cellular protein served as the blank.
# In order to examine the effect of combining angiostatin and Lu-Tex/PDT on DEVD-ase activation in BRCE cells, cells were treated with angiostatin alone, Lu-Tex/PDT alone and angiostatin/Lu-Tex/PDT, following which caspase 3-like activity was assayed as described above. Fluences of 20 and 40 J/cm^2 were used, corresponding to LD100 of combination angiostatin/Lu-Tex/PDT and Lu-Tex/PDT alone respectively. […] As in the case of BRCE cells treated with Lu-Tex/PDT alone, the rate of entry into apoptosis of BRCE cells treated with combination of angiostatin/Lu-Tex/PDT was time-dependent.
# BRCE cells = experiment: Cellular morphology following PDT, BRCE cells; format: cell-based, Bovine; details: one week after treatment
# Procedure: as §6
# [8] = fluence 5 J/cm^2, 3 μg/ml Lu-Tex, angiostatin 500 ng/ml where used, 7 days, mean ± SD
# [9] = fluence 10 J/cm^2, 3 μg/ml Lu-Tex, angiostatin 500 ng/ml where used, 7 days, mean ± SD
# [10] = fluence 20 J/cm^2, 3 μg/ml Lu-Tex, angiostatin 500 ng/ml where used, 7 days, mean ± SD
# [11] = angiostatin alone 500 ng/ml, no PDT
molecule,measurement,setting,value
"CC(=O)[O-].CC(=O)[O-].CCc1c(CC)c2cc3nc(cnc4cc(OCCOCCOCCOC)c(OCCOCCOCCOC)cc4ncc4nc(cc1[n-]2)C(CCCO)=C4C)C(C)=C3CCCO.O.[Lu+3] [Lu-Tex/PDT, Lutetium Texaphyrin]",Bak protein level,Bak,upregulation
same,Bcl-xL protein level,Bcl-xL,upregulation
same,Bax protein level,Bax,upregulation
same,cellular ratio of Bax to Bcl-2 protein,Bax,increase
same,Bcl-2 protein level,Bcl-2,downregulation
same,RPE cell survival,"[1]; fluence 20 J/cm^2, previous studies",about 43%
same,RPE cell survival,"[1]; fluence 40 J/cm^2, previous studies",~21%
same,earliest elevation of caspase 3-like activity post-Lu-Tex/PDT,[2],10 min
same,time of peak caspase 3-like activity post-Lu-Tex/PDT,[2],40 min
same,persistence in the target neovasculature,[3],about twenty
same,time until present within the target neovasculature post administration,[3],one
same,stability of stock solution,[4],stable
same,Cellular Survival (%),[5]; [8],94.55 ± 1.60 (5J/cm^2) %
same,Cellular Survival (%),[5]; [9],59.59 ± 3.56 (10J/cm^2) %
same,Cellular Survival (%),[5]; [10],53.47 ± 3.18 (20J/cm^2) %
same,improvement of RPE cell survival post-PDT,[5]; light dose 20 J/cm^2 (instead of 40 J/cm^2),20%
same,cellular morphology / fate of RPE cells,RPE cells,appeared unchanged
same,Cellular Survival (%),[6]; [8],79.13 ± 4.05 (5J/cm^2) %
same,Cellular Survival (%),[6]; [9],53.17 ± 0.32 (10J/cm^2) %
same,Cellular Survival (%),[6]; [10],33.34 ± 2.26 (20J/cm^2) %
same,dark toxicity,"[6]; at the concentration of Lu-Tex used (3 μg/ml), no light",no dark toxicity was observed
same,lethality of BRCE cells,[6]; fluence 40 J/cm^2,100%
same,lethal dose (LD100) for BRCE cells,[6]; fluence of light,40 J/cm^2
same,increase of caspase 3-like activation in BRCE cells as compared to RPE cells,[7]; 10 J/cm^2 and 20 J/cm^2,about 50%
same,caspase 3-like activation levels in BRCE relative to RPE cells,[7]; 40 J/cm^2,5 fold
same,"caspase 3-like (DEVD-ase) activity, Lu-Tex/PDT (40 J/cm^2) compared with angiostatin/Lu-Tex/PDT (20 J/cm^2)",[7]; BRCE,increased levels
same,earliest elevation of caspase 3-like activity post-Lu-Tex/PDT,"[7]; BRCE, 10, 20 and 40 J/cm^2",10 min
same,time of peak caspase 3-like activity post-Lu-Tex/PDT,"[7]; BRCE, 10, 20 and 40 J/cm^2",40 min
C=Cc1c(C)c2cc3nc(c(CC(=O)N[C@@H](CC(=O)O)C(=O)O)c4[nH]c(cc5nc(cc1[nH]2)C(C)=C5CC)c(C)c4C(=O)O)[C@@H](CCC(=O)O)[C@@H]3C [N-aspartyl chlorin e6],persistence in the target neovasculature,[3],about twenty
same,time until present within the target neovasculature post administration,[3],one
O=C([O-])c1c(Cl)c(Cl)c(Cl)c(Cl)c1-c1c2cc(I)c(=O)c(I)c-2oc2c(I)c([O-])c(I)cc12.[Na+].[Na+] [rose bengal],persistence in the target neovasculature,[3],about ten
same,time until present within the target neovasculature post administration,[3],one
Angiostatin,cellular morphology / fate of BRCE cells,BRCE cells,continued to proliferate and reached confluence
same,Cellular Survival (%),[5]; [11],99.09%
same,cytotoxicity on human RPE cells,[5]; human angiostatin alone,no cytotoxicity was observed
same,cellular morphology / fate of RPE cells,RPE cells,continued to proliferate and reached confluence
same,Cellular Survival (%),[6]; [11],87.39%
same,killing of BRCE cells,"[6]; angiostatin alone, 500 ng/ml",12.61%
benzoporphyrin derivative,persistence in the target neovasculature,[3],about fifty
same,time until present within the target neovasculature post administration,[3],one
